Some test systems named below: SK-MEL-2; IGROV-1; CAKI-1; SN12C; NCI-H460; NCI-H226; LOX IMVI; HCT-15; SNB-19; TK-10; ACHN; NCI-H522; U-251; SK-MEL-28; HCT-116.
Holding throughout (assay): inhibition of tumour cell growth, NCI panel, 48 h

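1) Cells in 96-well plates. 2) Compound, 48 h, 5 concentrations. 3) Linear interpolation between surrounding doses. 4) Unreached endpoint = highest concentration. GI50 is the concentration that inhibits growth by half.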 Active and inactive are the calls of the source. Cut-off read from the data, not from the text of the source: active = GI50 up to about 1.1 µM and inactive = higher.

From ChEMBL document CHEMBL1201862, “PubChem BioAssay data set” (2004) come the findings set out here.

With `Oc1cc(-c2ccc3c(c2)OCO3)nc2cc3c(cc12)OCO3`, the GI50 with SK-MEL-2 is 31.1 µM (inactive); with IGROV-1 it was > 100 µM (inactive); in the assay on CAKI-1 it was 64.4 µM (inactive); in the assay with SN12C it was 39.5 µM (inactive); in the assay with NCI-H460, 40.2 µM (inactive); with NCI-H226, 34.4 µM (inactive). Besides, the GI50 in the assay on LOX IMVI was 57.8 µM (inactive); with HCT-15, 40.3 µM; in the assay on SNB-19, 54.3 µM (inactive); in the assay on TK-10 it was 63.8 µM (inactive); with ACHN it was 46.1 µM (inactive); in the assay on NCI-H522, 40.2 µM (inactive). The GI50 is 30.5 µM (inactive) in the assay with U-251 and 37.4 µM (inactive) with SK-MEL-28.

Take `COc1ccc(C(O)/C(=C/n2ccnc2)c2ccccc2)cc1OC` (stereo not given): the GI50 in the assay on SK-MEL-2, in the assay on IGROV-1, in the assay on SN12C, in the assay on NCI-H460, with NCI-H226 and in the assay on LOX IMVI was > 100 µM (inactive) in each case. In addition, the GI50 is more than 100 µM with HCT-15; > 100 µM (inactive) in the assay on SNB-19; > 100 µM (inactive) in the assay on TK-10; > 100 µM (inactive) in the assay on ACHN; > 100 µM (inactive) with U-251; > 100 µM (inactive) in the assay with HCT-116. For the same molecule, the GI50 in the assay on SK-MEL-28 was > 100 µM (inactive).

As for `C=CCNC(=O)NCCCCC(NC(C)=O)C(=O)NCc1ccccc1` (stereo not given), the GI50 with SK-MEL-2, with IGROV-1, in the assay on CAKI-1, with SN12C, in the assay with NCI-H460 and in the assay on NCI-H226 was > 100 µM (inactive) in each case. Also, the GI50 in the assay with LOX IMVI was > 100 µM (inactive); in the assay with HCT-15, more than 100 µM; in the assay with SNB-19, > 100 µM (inactive); in the assay with TK-10, > 100 µM (inactive); in the assay on ACHN it was > 100 µM (inactive); in the assay with NCI-H522, > 100 µM (inactive). For the same molecule, the GI50 in the assay on U-251 and with SK-MEL-28 was > 100 µM (inactive) throughout.

Turning to `CCOC(=O)C1=C(C)N(NC(N)=O)C2(N)N(NC(N)=O)C(C)=C(C(=O)OCC)C12C#N` (stereo not given), the GI50 in the assay with SK-MEL-2, with IGROV-1, in the assay with CAKI-1, with SN12C, in the assay with NCI-H460 and in the assay with NCI-H226 was > 100 µM (inactive) throughout. In addition, the GI50 with LOX IMVI is > 100 µM (inactive); in the assay with HCT-15, more than 100 µM; with SNB-19, > 100 µM (inactive); in the assay on ACHN, > 100 µM (inactive); in the assay with NCI-H522, > 100 µM (inactive); with U-251, > 100 µM (inactive). Besides, the GI50 in the assay with HCT-116 and in the assay on SK-MEL-28 was > 100 µM (inactive) throughout.

In the case of `COC(=O)N/N=C(\C(=O)Nc1cccc([N+](=O)[O-])c1)c1nc2ccc([N+](=O)[O-])cc2nc1O`, the GI50 with IGROV-1 was 64.6 µM (inactive); in the assay on SN12C it was > 100 µM (inactive); in the assay with NCI-H460, 57.5 µM (inactive); in the assay on NCI-H226, > 100 µM (inactive); in the assay with LOX IMVI, 18.6 µM (inactive); in the assay with SNB-19 it was > 100 µM (inactive). The GI50 is > 100 µM (inactive) with TK-10; 24.7 µM (inactive) with ACHN; 3.47 µM (inactive) in the assay with NCI-H522; 61.7 µM (inactive) in the assay with HCT-116; > 100 µM (inactive) with SK-MEL-28.

As to `O=C(O)CNS(=O)(=O)c1ccc(NC(=O)CI)cc1`, the GI50 is 23.3 µM (inactive) in the assay on SK-MEL-2; 26.5 µM (inactive) with IGROV-1; 40.7 µM (inactive) in the assay with CAKI-1; 32.5 µM (inactive) in the assay on SN12C; 25.7 µM (inactive) with NCI-H460; > 100 µM (inactive) in the assay on NCI-H226. The GI50 in the assay on LOX IMVI is 19 µM (inactive); in the assay with HCT-15, 17.6 µM; with SNB-19 it was 58.2 µM (inactive); in the assay with TK-10, 63 µM (inactive); with ACHN, 52 µM (inactive); in the assay with NCI-H522 it was 2.16 µM (inactive). Also, the GI50 with U-251 was 19.1 µM (inactive); in the assay on SK-MEL-28, 24.4 µM (inactive).

Regarding `O=[N+]([O-])c1cnn(C2=CNc3ccccc3N=C2)c1`, the GI50 in the assay with SK-MEL-2 is > 100 µM (inactive); in the assay with SN12C, > 100 µM (inactive); with NCI-H460, > 100 µM (inactive); in the assay with NCI-H226, > 100 µM (inactive); with HCT-15, more than 100 µM; in the assay on SNB-19 it was > 100 µM (inactive). The GI50 in the assay on TK-10, in the assay with ACHN, with U-251, with HCT-116 and in the assay with SK-MEL-28 was > 100 µM (inactive) throughout.

As to `O=C1CC[C@@H](S(=O)(=O)c2ccccc2)[C@@H](/C=C/c2ccccc2)O1`, the GI50 was > 100 µM (inactive) in the assay with IGROV-1; > 100 µM (inactive) with SN12C; > 100 µM (inactive) in the assay on NCI-H460; > 100 µM (inactive) in the assay on NCI-H226; > 100 µM (inactive) in the assay with LOX IMVI; more than 100 µM in the assay with HCT-15. The GI50 with SNB-19, in the assay with TK-10, in the assay with ACHN, in the assay on NCI-H522, in the assay on U-251 and in the assay with HCT-116 was > 100 µM (inactive) in each case. Besides, the GI50 with SK-MEL-28 was > 100 µM (inactive).

Take `Cc1ccc2c(ccc(/C=C\c3cc(C)c4cccnc4c3O)[n+]2C)c1`: the GI50 in the assay with IGROV-1 is 6.24 µM (inactive); in the assay with CAKI-1, 5.53 µM (inactive); in the assay with SN12C, 2 µM (inactive); with NCI-H460, 0.439 µM (active); with NCI-H226 it was 1.4 µM (inactive); in the assay with LOX IMVI it was 0.791 µM (active). Besides, the GI50 with SNB-19 was 6.08 µM (inactive); with ACHN it was 5.65 µM (inactive); with NCI-H522 it was 4.34 µM (inactive); with U-251, 1.75 µM (inactive); in the assay with HCT-116, 0.61 µM (active).

Consider `CC(C)(C)CC(C)(C)NCC(O)COc1ccc(C(C)(C)c2ccc(OCC(O)CNC(C)(C)CC(C)(C)C)cc2)cc1` (stereo not given), for which the GI50 is 1.84 µM (inactive) in the assay with SK-MEL-2; 1.77 µM (inactive) in the assay on IGROV-1; 1.75 µM (inactive) with CAKI-1; 1.63 µM (inactive) in the assay with SN12C; 0.46 µM (active) in the assay with NCI-H460; 1.97 µM (inactive) in the assay with NCI-H226. Also, the GI50 in the assay with LOX IMVI was 0.429 µM (active); with HCT-15, 1.37 µM; in the assay with SNB-19 it was 1.64 µM (inactive); with ACHN, 1.77 µM (inactive); in the assay with NCI-H522 it was 1.61 µM (inactive); in the assay on U-251, 0.7 µM (active). Moreover, the figures for the GI50 in the assay with HCT-116 and in the assay with SK-MEL-28 were 2.37 µM (inactive) and 0.615 µM (active), respectively.

On to `COC(=O)C1=C(C[S+]([O-])c2ccc([N+](=O)[O-])cc2[N+](=O)[O-])C2C=CC1C2` (stereo not given), for which the GI50 in the assay on SK-MEL-2 is 41.4 µM (inactive); with IGROV-1 it was 64.9 µM (inactive); with CAKI-1 it was 21.1 µM (inactive); with SN12C it was 23.7 µM (inactive); in the assay on NCI-H460 it was 35.9 µM (inactive); in the assay on NCI-H226, 31.4 µM (inactive). The GI50 was 13.5 µM (inactive) in the assay on LOX IMVI; 15.7 µM in the assay with HCT-15; > 100 µM (inactive) in the assay with SNB-19; 23.4 µM (inactive) in the assay with TK-10; 19.8 µM (inactive) with ACHN; 13.8 µM (inactive) in the assay with NCI-H522. The GI50 was 20 µM (inactive) in the assay on U-251 and 21.8 µM (inactive) with HCT-116.

As to `N#CC(C#N)=c1ccc(=C2NCC3CCCN23)cc1` (stereo not given), the GI50 in the assay with SK-MEL-2, with IGROV-1, in the assay on CAKI-1, with SN12C, in the assay with NCI-H460 and in the assay on NCI-H226 was > 100 µM (inactive) each time. Further, the GI50 in the assay with LOX IMVI was > 100 µM (inactive); with HCT-15, more than 100 µM; in the assay on SNB-19, > 100 µM (inactive); with TK-10 it was > 100 µM (inactive); with NCI-H522, > 100 µM (inactive); in the assay with U-251, > 100 µM (inactive). Moreover, the GI50 with HCT-116 is > 100 µM (inactive).

As to `CC(=O)NC1=C(Nc2ccc(C)cc2)C(=O)c2ccccc2C1=O`, the GI50 in the assay with SK-MEL-2 was 21.6 µM (inactive); with IGROV-1, 17.7 µM (inactive); with CAKI-1 it was 43.7 µM (inactive); in the assay with SN12C it was 15.9 µM (inactive); in the assay on NCI-H460, 12.1 µM (inactive); in the assay with NCI-H226, 14.1 µM (inactive). The GI50 was 9.53 µM (inactive) in the assay on LOX IMVI; 14.5 µM in the assay on HCT-15; 29.3 µM (inactive) with SNB-19; > 75 µM (inactive) in the assay with TK-10; 17.9 µM (inactive) in the assay on ACHN; 29 µM (inactive) in the assay with U-251. For the same molecule, the GI50 in the assay with HCT-116 was 19.9 µM (inactive); with SK-MEL-28, 17.6 µM (inactive).

Regarding `COC1O[C@@H]2COC(C)(C)O[C@@H]2C(=O)N1Nc1ccc([N+](=O)[O-])cc1` (stereo not given in full), the GI50 in the assay with SK-MEL-2, with IGROV-1, in the assay with CAKI-1, in the assay on SN12C, in the assay on NCI-H460 and with NCI-H226 was > 100 µM (inactive) each time. Further, the GI50 in the assay with LOX IMVI is 31.9 µM (inactive); in the assay with HCT-15, more than 100 µM; in the assay with SNB-19, > 100 µM (inactive); in the assay with TK-10, > 100 µM (inactive); in the assay on ACHN, > 100 µM (inactive); in the assay on U-251, > 100 µM (inactive). The GI50 in the assay with HCT-116 and in the assay with SK-MEL-28 was > 100 µM (inactive) throughout.

As to `COC(=O)[C@@]12C3=NO[C@]1(C(=O)OC)C(O[Si](C)(C)C(C)(C)C)C1OC(C)(C)OC1[C@@H]2[C@@H](OCc1ccccc1)CC3` (stereo not given in full), the GI50 was > 100 µM (inactive) with SK-MEL-2; > 100 µM (inactive) in the assay with IGROV-1; > 100 µM (inactive) in the assay on SN12C; > 100 µM (inactive) with NCI-H226; 83.9 µM (inactive) in the assay on LOX IMVI; 91 µM in the assay with HCT-15. Also, the GI50 with SNB-19 is > 100 µM (inactive); with TK-10 it was > 100 µM (inactive); in the assay on U-251, > 100 µM (inactive); in the assay on HCT-116, 8.2 µM (inactive); with SK-MEL-28, > 100 µM (inactive).
